Results: US20240299376A1, “METHOD OF TREATING A CONDITION USING A […] EFFECTIVE DOSE OF 1-(1-OXO-1,2-DIHYDROISOQUINOLIN-5-YL)-5-(TRIFLUOROMETHYL)-N-(2-(TRIFLUOROMETHYL)PYRIDIN-4-YL)-1H-PYRAZOLE-4-CARBOXAMIDE” (Janssen Pharmaceutica NV, priority 2021, published 2024)
Where two headings read alike, the source gives them in different places.

Columns and labels:
[1] = test system: T cells derived from healthy donors; experiment: CyTOF analysis of T cells stimulated with CD3/28; assay type: cell-based, human
From the text: After fixation and barcoding, samples were pooled per donor and stained using a panel of 32 metal-labelled antibodies for identification of phenotype and function of immune cell populations and acquired on a CyTOF® C5 system. After debarcoding and normalization, cell populations were either manually gated or clustered by spanning-tree progression of density-normalized events (SPADE) analysis using Cytobank® software.
These observations are consistent with the fluorescence-activated cell sorting (FACS) analysis data.

MALT1 substrate BCL10 = experiment: BCL10 Mesoscale assay of OCI-LY3 tumor samples after a single dose; assay type: in vivo, NSG mice; conditions: OCI-LY3 tumors
Method: MALT1 protease activity results in the cleavage of negative regulators of the classical NF-κB pathway such as A20, CYLD, RelB, and BCL10. […] The assay measures un-cleaved BCL10 which is increased upon MALT1 inhibition. OCI-LY3 or OCI-LY10 tumors were crushed before lysis in Mammalian Protein Extraction Reagent buffer for 30 minutes at 4° C. Centrifugation of the lysate was done and supernatant kept for analysis in the MSD assay. MSD plates (small spot, goat anti-rabbit coated, MSD L45RA-1) were blocked for 1 hour with 3% Bovine serum Albumin (in Tris-buffered saline, 0.1% Tween 20) and labeled with BCL10 antibody (Abcam #33905) to capture the uncleaved BCL10. 25 μg of tumor lysates were transferred to the BCL 10-labeled MSD plate and incubated for 24 hours at 4° C. followed by 2-hour incubation with BCL10 antibody detecting cleaved/uncleaved BCL10 (ab93022) and 2-hour antibody detection. Plates were read on a SECTOR imager.
As a more direct PD readout, OCI-LY3 tumor samples were analyzed by a BCL 10 Mesoscale assay, looking for cleavage inhibition of the MALT1 substrate BCL10. The assay measures uncleaved BCL10 in tumor.
Tumor uncleaved BCL10 levels are graphed as the mean+SD.
For PD, when tumors reached 550-750 mm^3 animals were assigned randomly into the treatment groups and treated as presented in Table 5. Dose volumes were adjusted to individual body weights at 10 mL/kg. […]

[2] = 14-day oral toxicity study toxicokinetics in dogs (beagles); assay type: in vivo, dog; conditions: for Cmax: female, beagle, dog, in vivo, po, 250 mg/kg/day
Method: Repeated-dose PK (toxicokinetics) were obtained as part of the repeated oral dose toleration toxicity studies in rats and dogs.
However, there was no increase in the exposure parameters at 250 mg/kg/day from the first day of dosing until Day 7 when the dose group was terminated.

U2932 (A20/TAK1 mut) = experiment: Anti-proliferative activity, DLBCL cell line panel; assay type: cell-based; conditions: Homo sapiens, U2932, 192 h; antiproliferation after 8 days of treatment
Single IV dose plasma PK = assay type: in vivo, monkey
Method: Single intravenous (IV) dose PK was conducted in mice (two strains), rats, monkeys, and dogs at a dose of 1 mg/kg in 70% PEG400 (PEG400/water 70:30) by bolus injection. The time course for plasma sample was optimized to fully characterize the disposition profile in each species. PK analysis was by non-compartmental method.

[3] = Serum and tumor levels after multiple oral doses in male OCI-LY3 tumor-bearing NSG mice; assay type: in vivo; conditions: mean (SD); for concentration at 7 h / concentration at 12 h / concentration at 4 h / concentration at 24 h / Kp at 12 h / Kp at 24 h: male, NSG, mouse; for concentration at 7 h: 7 h post dose; for Kp at 12 h: Day 5, 12 h post dose, read-out: Tumor: serum ratio; for Kp at 24 h: read-out: Tumor:serum ratio
Method: Serum samples were collected at 7 and 12 hours post dose and tumor samples were collected 12 hours post last dose from the twice-daily-treated animals. From once-daily-treated animals, serum samples were collected at 4, 12, and 24 hours post dose and tumor samples were collected at 24 hours post last dose.

[4] = Day 1, 10 to 50 mg/kg/day (5-fold increase in dose)
[5] = Day 1, 10 to 250 mg/kg/day (25-fold increase in dose)
[6] = male, plasma, Monkey, cynomolgus, 3M, 1 mg/kg IV in 70% PEG400, mean

O=C(Nc1ccnc(C(F)(F)F)c1)c1cnn(-c2cccc3c(=O)[nH]ccc23)c1C(F)(F)F [Compound A, 1-(1-oxo-1,2-dihydroisoquinolin-5-yl)-5-(trifluoromethyl)-N-[2-(trifluoromethyl)pyridin-4-yl]-1H-pyrazole-4-carboxamide]
generation of Treg cells following CD3/28 stimulation ([1]; 4 days, CyTOF): dose-dependently inhibited the generation of CD4^+CD25^+CD1271^lowFoxP3^hi cells
number of CD8+ T cells ([1]; 4 days, CyTOF): no strong effect on the number of CD8^+ T cells was observed
expression of TIM3 ([1]; CD4+ and CD8+ T cells, CyTOF): No decrease
expression of exhaustion markers PD-1, CTLA4, LAG3 ([1]; CD8+ T cells, CyTOF): decreased on CD8^+ T cells
activation of CD8+ T cells ([1]; CD69+CD25+ cells following CD3/28 stimulation): reduced
dose giving maximum levels of uncleaved BCL10 (MALT1 substrate BCL10): ≥ 10 mg/kg
fraction of uncleaved BCL10 in tumor (MALT1 substrate BCL10): dose-dependently increased the fraction of uncleaved BCL10
increase in AUC0-24h with dose [2, 4]: 5.8 fold
increase in Cmax with dose [2, 4]: 5.5 fold
increase in AUC0-24h with dose [2, 5]: 23 fold
increase in Cmax with dose [2, 5]: 20 fold
relation of single doses to maximum tolerated dose (MTD) ([2]; escalated single oral doses vs MTD upon 14 days of dosing in dogs): greater than the maximum tolerated dose (MTD) upon 14 days of dosing in dogs
toxicity findings ([2]; female beagles, 10, 50, and 250 mg/kg/day PO for 14 days): moribundity and mortality resulted in early termination of the 50 and 250 mg/kg dose groups
Cmax [2]: 263,000 ng/mL
Cmax ([2]; Cmax): 290000 ng/mL
IC50 (U2932 (A20/TAK1 mut)): 3.9 µM
AUC(0-inf) (Single IV dose plasma PK; [6]): 16400 ng·h/mL
C0 (Single IV dose plasma PK; [6]): 1840 ng/mL
clearance (Single IV dose plasma PK; [6]): 1.12 mL/min/kg
half-life (Single IV dose plasma PK; [6]): 11.9 h
Vd (Single IV dose plasma PK; male, plasma, Monkey, cynomolgus, 3M, 1 mg/kg IV in 70% PEG400, mean, read-out: Vdss): 0.748 L/kg
CL as fraction of liver blood flow (LBF) (Single IV dose plasma PK; monkey, LBF 43.6 mL/min/kg): 1.7%
Serum concentration ([3]; 10 mg/kg twice daily PO, Day 5 eight doses given, 12 h post dose (trough)): 2,202 (313) ng/ml
concentration at 7 h ([3]; serum, oral, 10 mg/kg, 10 mg/kg twice daily PO, Day 1 following first dose): 3260 ng/mL
concentration at 12 h ([3]; serum, oral, 10 mg/kg, 10 mg/kg twice daily PO, Day 1 following first dose, 12 h post dose, read-out: Serum concentration): 2440 ng/mL
concentration at 7 h ([3]; serum, oral, 10 mg/kg, 10 mg/kg twice daily PO, Day 4 seven doses given): 3760 ng/mL
concentration at 12 h ([3]; serum, oral, 10 mg/kg, 10 mg/kg twice daily PO, Day 5 eight doses given, 12 h post dose (trough), read-out: Serum concentration): 2200 ng/mL
concentration at 7 h ([3]; serum, oral, 30 mg/kg, 30 mg/kg twice daily PO, Day 1 following first dose): 9970 ng/mL
concentration at 12 h ([3]; serum, oral, 30 mg/kg, 30 mg/kg twice daily PO, Day 1 following first dose, 12 h post dose, read-out: Serum concentration): 9000 ng/mL
concentration at 7 h ([3]; serum, oral, 30 mg/kg, 30 mg/kg twice daily PO, Day 4 seven doses given): 7420 ng/mL
concentration at 12 h ([3]; serum, oral, 30 mg/kg, 30 mg/kg twice daily PO, Day 5 eight doses given, 12 h post dose, read-out: Serum concentration): 3890 ng/mL
concentration at 7 h ([3]; serum, oral, 100 mg/kg, 100 mg/kg twice daily PO, Day 1 following first dose): 16200 ng/mL
concentration at 12 h ([3]; serum, oral, 100 mg/kg, 100 mg/kg twice daily PO, Day 1 following first dose, 12 h post dose, read-out: Serum concentration): 13300 ng/mL
concentration at 12 h ([3]; serum, oral, 100 mg/kg, 100 mg/kg twice daily PO, Day 5 eight doses given, 12 h post dose, read-out: Serum concentration): 6910 ng/mL
concentration at 4 h ([3]; serum, oral, once daily PO, dose not printed in Table 8 (first group; b301: 60 and 100 mg/kg), Day 1, 4 h post dose): 15000 ng/mL
concentration at 4 h ([3]; serum, oral, once daily PO, dose not printed in Table 8 (second group; b301: 60 and 100 mg/kg), Day 1, 4 h post dose): 18100 ng/mL
concentration at 24 h ([3]; serum, po, once daily PO, dose not given (first group), Day 1, 24 h post dose, read-out: Serum concentration): 2060 ng/mL
concentration at 4 h ([3]; serum, po, once daily PO, dose not given (first group), Day 4, 4 h post dose): 9850 ng/mL
concentration at 12 h ([3]; serum, po, once daily PO, dose not given (first group), Day 4, 12 h post dose, read-out: Serum concentration): 8680 ng/mL
concentration at 24 h ([3]; serum, po, once daily PO, dose not given (first group), Day 4, 24 h post dose, read-out: Serum concentration): 1380 ng/mL
concentration at 24 h ([3]; serum, po, once daily PO, dose not given (second group), Day 1, 24 h post dose, read-out: Serum concentration): 1970 ng/mL
concentration at 4 h ([3]; serum, po, once daily PO, dose not given (second group), Day 4, 4 h post dose): 12600 ng/mL
concentration at 12 h ([3]; serum, po, once daily PO, dose not given (second group), Day 4, 12 h post dose, read-out: Serum concentration): 11000 ng/mL
concentration at 24 h ([3]; serum, po, once daily PO, dose not given (second group), Day 4, 24 h post dose, read-out: Serum concentration): 2800 ng/mL
Kp at 12 h ([3]; tumor and serum, 10 mg/kg twice daily PO): 1
Kp at 12 h ([3]; tumor and serum, 30 mg/kg twice daily PO): 1.3
Kp at 12 h ([3]; tumor and serum, 100 mg/kg twice daily PO): 1.3
Kp at 24 h ([3]; tumor and serum, once daily PO, dose not given (first group), Day 4, 24 h post dose): 1.9
concentration at 12 h ([3]; tumor, oral, 10 mg/kg, 10 mg/kg twice daily PO, Day 5 eight doses given, 12 h post dose, read-out: Tumor concentration): 2160 ng/g
concentration at 12 h ([3]; tumor, oral, 30 mg/kg, 30 mg/kg twice daily PO, Day 5 eight doses given, 12 h post dose, read-out: Tumor concentration): 5050 ng/g
concentration at 12 h ([3]; tumor, oral, 100 mg/kg, 100 mg/kg twice daily PO, Day 5 eight doses given, 12 h post dose, read-out: Tumor concentration): 8830 ng/g
concentration at 24 h ([3]; tumor, po, once daily PO, dose not given (first group), Day 4, 24 h post dose, read-out: Tumor concentration): 2460 ng/g
concentration at 24 h ([3]; tumor, po, once daily PO, dose not given (second group), Day 4, 24 h post dose, read-out: Tumor concentration): 4300 ng/g
Kp at 24 h ([3]; tumor/serum, once daily PO, dose not given (second group), Day 4, 24 h post dose): 1.6
